As a reminder, the IC50 is the concentration that gives 50% inhibition. For orientation: chromatographic logD means lipophilicity estimated from chromatographic retention. By kinetic solubility is commonly meant the concentration staying in solution when a stock, usually in DMSO, is diluted into the medium. As a reminder, the half-life is the time in which the quantity being followed falls by half. Read a high half-life as slow decline.

This note sets out measurements from ChEMBL document CHEMBL1857833, “Screening and optimization of specific chemical series against human African Trypanosomiasis (HAT)”.

The structures appear in SMILES notation. Converted amounts (≈) assume the structure as drawn. “And” between values parts separate entries of the source, which are not always exact repeats. Equal entries are not always repeated.

The nature of series [1]: DNDI: Cytotoxicity against L-6 rat myoblasts from skeletal muscle cells. The settings on record: L-6 rat skeletal muscle myoblasts. It counts as toxicity, cell-based, L6.
The nature of series [2]: DNDI: Cytotoxicity against L929 mouse fibroblasts, 72 hour. The format is toxicity, cell-based. The settings on record: mouse, L929 mouse fibroblasts.
Series [3] in a line: DNDI: Lipophilicity measured in Chromatographic hydrophobicity index (CHI) assay, pH 7.4. The format is physicochemical. The settings on record: buffer.
The test system of series [4] is Trypanosoma cruzi. Nature of the series: DNDI: Inhibition of Chagas Disease parasite Trypanosoma cruzi (Tulahuen LacZ, Clone C4), in vitro. The format is functional, organism-based.
Series [5] can be described thus: DNDI: Solubility in phosphate buffered saline at pH7.4 measured by optical density (turbidimetry) at room temperature (OD-RT). It counts as physicochemical. The note with it: pH 7.4.
Series [6] is described as follows: DNDI: Cytotoxicity against L929 mouse fibroblasts, CYTO-SP, 24 hour. The note with it: mouse, L929 mouse fibroblasts. It counts as toxicity, cell-based.
A short description of series [7]: DNDI: in vitro intrinsic clearance in human liver microsomes at a concentration of 10uM. The format is ADME, Microsome. Background: Liver microsomes are a subcellular fraction often used to study metabolism.
Series [8] is described as follows: DNDI: half life in human liver microsomes at a concentration of 10uM. It counts as ADME, Microsome.
Series [9] concerns Leishmania donovani. Nature of the series: DNDI: Inhibition of formation of Leishmania donovani (strain MHOM/ET/67/L82) axenic amastigotes, in vitro. The format is functional, organism-based.
A short description of series [10]: DNDI: in vitro intrinsic clearance in mouse liver microsomes at a concentration of 10uM. The format is ADME, Microsome. The settings on record: read-out: CLint in vitro.
For series [11], the system named is Plasmodium falciparum. Nature of the series: DNDI: Inhibition of the malaria parasite Plasmodium falciparum, in vitro. The format is functional, organism-based. The note with it: K1.
In series [12] the test system is Trypanosoma brucei. The series is described as follows: DNDI: Inhibition of Human African Trypanosomiasis, SBRI 427, in vitro. It counts as functional, organism-based.
In series [13] the test system is Trypanosoma brucei rhodesiense. The series is described as follows: DNDI: Inhibition of Human African Trypanosomiasis (HAT), STIB 900, in vitro. It counts as functional, organism-based.
Series [14] in a line: DNDI: half life in mouse liver microsomes at a concentration of 10uM. It counts as ADME, Microsome.
Series [15] can be described thus: in vitro. The settings on record: mouse, t (1 / 2).
Description: DNDI: half life in mouse liver microsomes at a concentration of 1uM
For series [16] the following is noted: mouse, microsomes, 1 µM.
Description: DNDI: in vitro intrinsic clearance in mouse liver microsomes at a concentration of 1uM
Series [17] in a line: in vitro. The note with it: human, liver microsomes, t (1 / 2).
Description: DNDI: half life in human liver microsomes at a concentration of 1uM
A short description of series [18]: in vitro. The note with it: human, liver microsomes, CLint in vitro.
Description: DNDI: in vitro intrinsic clearance in human liver microsomes at a concentration of 1uM
Series [19] is described as follows: DNDI: Solubility in phosphate buffered saline at pH7.4 measured by nephelometry at room temperature (NEPH-RT). It counts as physicochemical. The settings on record: pH 7.4.
The subject of series [20] is Trypanosoma brucei. Nature of the series: DNDI: Inhibition of Human African Trypanosomiasis, Cross 22, in vitro. The format is functional, organism-based.
Series [21] deals with Trypanosoma brucei. Nature of the series: DNDI: Mean survival time in days (MSD) of mice after intraperitoneal injection of Human African Trypanosomiasis (HAT), EATRO 110, in vivo at 20 mg/kg/day for 4 days. The format is functional, Mus musculus.
The mark [22] stands for this setting: Trypanosoma brucei, SBRI 427, read-out: IC50.

In the case of `CCCCCC(C)NCc1coc(-c2ccc(OC)cc2)n1` (centres undefined), the IC50 turned out to be 16 µg/mL (≈ 53 µM) in series [1]; 2.9 µg/mL (≈ 9.59 µM) in [4]; 12.4 µg/mL (≈ 41.1 µM) in series [9]; 1.77 µg/mL (≈ 5.85 µM) in [11]; 2.13 µg/mL (≈ 7.04 µM) in series [12] (setting [22]); 1.06 µg/mL (≈ 3.51 µM) in series [13]. In addition, in [2], the IC50 at 72 h is over 10 µg/mL. Also, the chromatographic logD in [3] came out at 4.16. The solubility (kinetic) in series [5] worked out at 6.3 µM (≈ 1.91 µg/mL). The molecule also came in with an IC50 at 24 h in [6] of 33 µg/mL (≈ 109 µM). This molecule also returned a CLint in vitro in series [7] of 44 µL/min/mg. In addition, the half-life at 10 µM turned out to be 1.1 h in series [8] and 3.17 h in [14]. The microsomal CLint at 10 µM in [10] turned out to be 15 µL/min/mg.
`O/N=C(/NC1CCCCC1)c1cccc2ccccc12`: the half-life at 1 µM was 5 min in series [15] (liver microsomes) and 1.15 h in series [17]. In addition, in [3], the chromatographic logD was determined as 4.43. Moreover, the IC50 at 24 h in series [6] was over 50 µg/mL. In addition, the CLint in vitro in series [16] came out at 168 µL/min/mg. In addition, the IC50 in series [12] (setting [22]) was determined as 3.96 µg/mL (≈ 14.8 µM). Besides, the microsomal CLint at 1 µM in series [18] is 12 µL/min/mg. Besides, in series [19], the kinetic solubility is 50 µM (≈ 13.4 µg/mL).
Regarding `O/N=C(\NC1CCCC1)c1ccccc1-c1ccccc1`, the IC50 in [1] was over 90 µg/mL; in [4], 21.4 µg/mL (≈ 76.3 µM); in [9] it was 53.1 µg/mL (≈ 189 µM); in series [11], 2.57 µg/mL (≈ 9.17 µM); in series [12] (setting [22]), 1.17 µg/mL (≈ 4.17 µM); in series [13], 18.5 µg/mL (≈ 66 µM). The molecule further showed an IC50 at 72 h in series [2] of over 10 µg/mL. Moreover, the chromatographic logD in [3] is 4.3. In addition, the kinetic solubility in [5] came to 50 µM (≈ 14 µg/mL). Moreover, in series [6], the IC50 at 24 h is over 50 µg/mL. In addition, the CLint in vitro in [7] turned out to be 11 µL/min/mg. Moreover, the half-life at 10 µM was determined as 4.33 h in series [8] and 0.2 h in series [14]. For the same molecule, the microsomal CLint at 10 µM in series [10] stood at 243 µL/min/mg.
Regarding `CCCCCC(C)NCc1coc(-c2ccc(Cl)cc2)n1` (centres undefined), the IC50 in series [1] was 10.9 µg/mL (≈ 35.4 µM); in series [4], 11.3 µg/mL (≈ 36.8 µM); in [20] it was 1.54 µg/mL (≈ 5.02 µM); in series [9] it was 18.7 µg/mL (≈ 60.8 µM); in [11], 2.6 µg/mL (≈ 8.47 µM); in [12], 0.95 µg/mL and 1.02 µg/mL. Also, the results for the IC50 in [12] (setting [22]) and in series [13] were 1.7 µg/mL (≈ 5.54 µM) and 0.478 µg/mL (≈ 1.56 µM), respectively. In series [2], half-maximal inhibition (IC50 at 72 h) was put at 4.88 µg/mL (≈ 15.9 µM). Moreover, the chromatographic logD in series [3] was 5.02. The same molecule had a kinetic solubility in series [5] of 6.3 µM (≈ 1.93 µg/mL). In addition, 17 µg/mL (≈ 55.4 µM) corresponded to half-maximal inhibition in [6] (IC50 at 24 h). Besides, in [10], the microsomal CLint at 10 µM was 17 µL/min/mg. Besides, the half-life at 10 µM in series [14] was found to be 2.88 h.
As for `O/N=C(\NC1CCCCC1)c1ccccc1`, the IC50 in series [1] is 49.7 µg/mL (≈ 227 µM); in series [4], over 30 µg/mL; in series [9] it was 40.9 µg/mL (≈ 187 µM); in series [11], over 5 µg/mL; in series [12] (setting [22]) it was 0.92 µg/mL (≈ 4.21 µM); in series [13] it was 13.6 µg/mL (≈ 62.3 µM). Moreover, in [2], the IC50 at 72 h was over 10 µg/mL. The half-life at 1 µM in series [15] (microsomes) amounted to 8 min. The molecule also gave a chromatographic logD in [3] of 3.9. In series [5], this molecule showed a solubility (kinetic) of over 200 µM. The molecule also came in with an IC50 at 24 h in [6] of 50 µg/mL (≈ 229 µM). Also, the results for the CLint in vitro in [16] and in series [7] were 111 µL/min/mg and 10 µL/min/mg, respectively. The half-life at 10 µM in series [8] turned out to be 4.82 h; in series [14], 0.583 h. The microsomal CLint at 10 µM in series [10] was determined as 82 µL/min/mg.
Take `COc1cccc(/C(=N/O)NC2CCCCC2)c1`: the IC50 in series [1] is 63.3 µg/mL (≈ 255 µM); in [4] it was over 30 µg/mL; in series [9], 34 µg/mL (≈ 137 µM); in series [11] it was 4.4 µg/mL (≈ 17.7 µM); in [12] (setting [22]), 0.57 µg/mL (≈ 2.3 µM); in series [13], 14.4 µg/mL (≈ 58 µM). The molecule also yielded an IC50 at 72 h in [2] of over 10 µg/mL. In series [3], this molecule returned a chromatographic logD of 3.84. Besides, the solubility (kinetic) in series [5] came to 100 µM (≈ 24.8 µg/mL). Further, the 50% inhibitory concentration (IC50) at 24 h in series [6] was over 50 µg/mL. This molecule also gave a CLint in vitro in series [7] of 13 µL/min/mg. For the same molecule, the half-life at 10 µM in [8] is 3.65 h; in series [14] it was 0.117 h. In addition, the MSD in [21] was determined as 4 days. Also, the microsomal CLint at 10 µM in series [10] was 421 µL/min/mg.
With `O/N=C(\NC1CCCCC1)c1ccccc1Oc1ccccc1`, the IC50 is over 90 µg/mL in series [1]; over 30 µg/mL in [4]; 73.4 µg/mL (≈ 236 µM) in series [9]; 4.41 µg/mL (≈ 14.2 µM) in series [11]; 0.62 µg/mL (≈ 2 µM) in series [12] (setting [22]); 62.6 µg/mL (≈ 202 µM) in series [13]. The same molecule gave a 50% inhibitory concentration (IC50) at 72 h in [2] of over 10 µg/mL. In series [3], this molecule came in with a chromatographic logD of 4.43. Further, the solubility (kinetic) in [5] is 100 µM (≈ 31 µg/mL). Besides, the IC50 at 24 h in [6] was over 50 µg/mL. This molecule also displayed a CLint in vitro in [7] of 45 µL/min/mg. Moreover, the half-life at 10 µM in [8] was found to be 1.07 h; in [14] it was 0.0667 h. Also, the microsomal CLint at 10 µM in series [10] worked out at 767 µL/min/mg.
In series [2], `CCCCCC(C)NCc1ccc(-c2ccccc2)cc1` (centres undefined) gave a half-inhibitory concentration (IC50) at 72 h of under 3.13 µg/mL. Also, the chromatographic logD in series [3] was found to be 4.2. The molecule also registered a kinetic solubility in series [5] of 12.5 µM (≈ 3.52 µg/mL). Also, the IC50 at 24 h in [6] is over 50 µg/mL. The same molecule registered a CLint in vitro in series [7] of 25 µL/min/mg. For the same molecule, the half-life at 10 µM amounted to 1.9 h in [8] and 0.383 h in series [14]. The microsomal CLint at 10 µM in series [10] was found to be 126 µL/min/mg. For the same molecule, in series [12] (setting [22]), the IC50 is 0.66 µg/mL (≈ 2.35 µM).
